Laboratory results taken from patent US8163805B2, “Small molecule antagonists of Bcl-2 family proteins” (The Regents of the University of Michigan, priority 2001, dated 2012).

Assays:
fibroblasts = assay: 6-day MTT cell survival, mean over fibroblasts; format: cell-based, human
MDA-MB-231 cells = assay: 5 day MTT cell growth assay, MDA-MB-231; format: cell-based, human; conditions: breast cancer cell lines with high levels of Bcl-XL, FIG. 12
Procedure: For example, the ability of gossypol compounds to inhibit MDA-MB-231 cell growth was tested in a 5 day MTT assay.
Cells were seeded in 24 or 96-well-plates and gossypol compounds were prepared at 2-10 fold dilutions in suitable medium. Inhibition of cell viability was determined by treating the cells with the gossypol compounds for 24 hrs. […] Inhibition of cell growth was determined by treating cells with gossypol compounds for 3-6 days. […] In some embodiments, MTT assays are used to determine cell inhibition.
Absorbance at 540 nm is used to measure the amount of formazan product.

UM-SCC-6 [1] = assay: Flow cytometric TUNEL apoptosis assay, UM-SCC-6; format: cell-based, human; conditions: 10 μM, 48-hour
Procedure: Briefly, FIGS. 24A-24C show apoptosis after (−)-gossypol as measured by a fluorescent flow cytometric TUNEL assay. Open peaks represent BrdU labeling of untreated cells. Shaded peaks indicate BrdU labeling of cell populations following 48-hour treatment with 10 μM (−)-gossypol; FIG. 24A, UM-SCC-cell lines with wild type p53; FIG. 24B, UM-SCC-cell lines with mutant p53; and FIG. 24C normal fibroblast cells.
Apoptosis of UM-SCC cell lines following (−)-gossypol treatment was quantitatively detected by enzymatic labeling of DNA strand breaks using terminal deoxynucleotidyltransferase (TdT) and Alexa Fluor-BrdUTP, known as the TdT-UTP nick end-labeling (TUNEL) assay by flow cytometry. Cells were exposed to (−)-gossypol for 48 hours, harvested, fixed and TUNEL stained according to the manufacturer's protocol (Molecular Probes Inc., Eugene, Oreg.). Ten thousand cells were analyzed per sample using excitation of Alexa Fluor at 488 nm. Apoptotic index (AI) was defined as percent of apoptotic cells in the treatment population minus that in the vehicle control population.

UM-SCC-6 [2] = assay: Trypan blue exclusion cell death, UM-SCC-6; format: cell-based, human; conditions: 10 μM, 48 hour
Procedure: Cells were seeded in 24 or 96-well-plates and gossypol compounds were prepared at 2-10 fold dilutions in suitable medium. […] Cell viability was then determined by the trypan-blue assays. Inhibition of cell growth was determined by treating cells with gossypol compounds for 3-6 days. Cell inhibition was determined using XTT. In some embodiments, MTT assays are used to determine cell inhibition.

Bcl-XL = molecular target: T1, Bcl-XL (Homo sapiens, UniProt Q07817, DEL45-84); assay: 15N HSQC NMR binding to Bcl-XL
T1 construct: His-tag (N); made in house

UM-SCC-22A = assay: 6-day MTT cell growth, UM-SCC-22A; format: cell-based, human; conditions: read-out: IC50, inhibition of cell growth
Procedure: UM-SCC and human fibroblast cell lines were continuously exposed to varying concentrations of (−)-gossypol in 6-day MTT cell survival assays. Control wells contained media (DMEM) with vehicle alone. For each data point n=5.
Ten squamous cell carcinoma cell lines established at the University of Michigan (UM-SCC) and three human fibroblast lines were grown in Dulbecco's modified Eagle's medium (DMEM) supplemented with 10% fetal bovine serum. UM-SCC cell lines originated from the larynx (n=2; UM-SCC-12, -23), oral cavity/oropharynx (n=5; UM-SCC-1, -6, -14A, -74B, -81B), hypopharynx (n=1; UM-SCC-22A) and metastases from laryngeal cancers (n=2; UM-SCC-17B, -25). Human fibroblast cell lines originated from surgical specimens (fibroblast cell lines 2 and 3) and neonatal foreskin samples (fibroblast cell line 1).
Logarithmically growing cell lines were cultured, washed, counted, and plated at 5,000-15,000 cells per well in duplicate wells of 96-well plates and incubated in DMEM overnight. […] The MTT assay measures cell survival based on mitochondrial conversion of MTT from a soluble tetrazolium salt into an insoluble colored formazan precipitate, which is dissolved in dimethyl sulfoxide and quantitated by spectrophotometry. […] Percent absorbance relative to control was plotted as a linear function of drug concentration.

[3] = system: normal human fibroblast WI-38 cells; assay: MTT-based 5-day cell proliferation, WI-38; conditions: WI-38, FIG. 42
From the text: The present invention is not limited to any mechanism. Indeed, a mechanistic understanding of the invention is unnecessary to practice (make and use) the present compositions and methods.

[4] = system: A549 non-small cell lung carcinoma xenograft; assay: A549 non-small cell lung carcinoma xenograft, (−)-gossypol with paclitaxel; conditions: Table 13; combinations of G- with paclitaxel at 7.5 mg/kg

T1 sequence (Q07817 with tags, fused parts or gaps DEL45-84 limits assumed): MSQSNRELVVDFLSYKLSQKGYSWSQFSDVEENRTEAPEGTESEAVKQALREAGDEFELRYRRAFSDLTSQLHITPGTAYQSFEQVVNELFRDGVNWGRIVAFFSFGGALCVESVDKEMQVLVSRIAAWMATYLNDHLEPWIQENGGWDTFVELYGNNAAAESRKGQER

Structure (SMILES): Cc1cc2c(C(C)C)c(O)c(O)c(C=O)c2c(O)c1-c1c(C)cc2c(C(C)C)c(O)c(O)c(C=O)c2c1O [(−)-gossypol]
- IC50 (fibroblasts): 20.3 ± 9.2 µM
- potency in inhibition of cell growth relative to (+)-gossypol, first statement (MDA-MB-231 cells): 2 times
- potency in inhibition of cell growth relative to (+)-gossypol, second statement (MDA-MB-231 cells): 5-10 times
- apoptotic index (AI) (UM-SCC-6 [1]): 80.3%
- surviving (trypan blue excluding) fraction relative to untreated controls (UM-SCC-6 [2]): 9%
- binding to Bcl-XL by NMR (Bcl-XL): bind to the BH3 binding groove in Bcl-XL
- IC50 (UM-SCC-22A): 3 µM
- cytotoxicity [3]: very limited effect
- tumor growth inhibition compared with vehicle control [4]: 76% tumor growth inhibition as
